US9198845B2, “Glutamine derivatives as deodorants” (Givaudan S.A., priority 2010, dated 2015)
Where two headings read alike, the source gives them in different places.

What was measured:
Format in all cases: cell-based
Corynebacterium Ax 20 = assay: Inhibition of release of 3-hydroxy-3-methyl-hexanoic acid from Nα-(3-hydroxy-3-methyl-hexanoyl)-glutamine by bacterial cells (GC-analysis); conditions: for inhibition at 10 ppm / inhibition at 100 ppm / inhibition at 500 ppm / inhibition at 1000 ppm: Corynebacterium; for inhibition at 500 ppm: 500 ppm test compound; for inhibition at 1000 ppm: 1000 ppm test compound; for kind of inhibition (true inhibitor or alternative substrate): conclusion from Tables 1 and 2, prolonged preincubation; for IC 50 (Concentration for 50% inhibition of malodour release): estimated from the data in Table 1; for inhibitory activity compared to compound II: relative to compound II; for inhibition of malodour release: Compound Ia; for efficacy as inhibitors: general statement in the description
Experimental: (§1) Corynebacterium Ax 20 was grown overnight, harvested and resuspended in a phosphate buffer (50 mM, pH 7.5). Different compounds were dissolved in dimethylsulfoxide and added to the cells at a final concentration of 10 ppm, 100 ppm 500 ppm and 1000 ppm. The cells were then preincubated with the test agent for 30 min, 4 h, 8 h or 24 h. After this pre-incubation period, the natural substrate Nα-(3-hydroxy-3-methyl-hexanoyl)-glutamine was added (1 mM final concentration) and the cells were further incubated for 90 min. The released 3-hydroxy-3-methyl-hexanoic acid was determined by GC-analysis and compared to control samples to assess the […] malodor reducing capacity of a given compound in the bacterial cells. The samples were then further analysed to determine the cleavage of the synthetic compound by the action of the bacterial enzymes.

Ax30 = assay: Inhibition of release of 3-hydroxy-3-methyl-hexanoic acid in different bacterial species; conditions: Arthrobacter woluwensis
Experimental: as §1, with “The cells were then preincubated with the test agent for 30 min, 4 h, 8 h or 24 h.” left out
(§2) The inhibition of malodour release was tested on different bacterial species, all isolated from the human axilla. The method from Example 2 was used.

Ax52 = assay: as above; conditions: Corynebacterium mucifaciens
Experimental: as §1, with “The cells were then preincubated with the test agent for 30 min, 4 h, 8 h or 24 h.” left out
as §2

Ax73 = assay: as above; conditions: Corynebacterium coyleae
Experimental: as §1, with “The cells were then preincubated with the test agent for 30 min, 4 h, 8 h or 24 h.” left out
as §2

Ax43 = assay: as above; conditions: Corynebacterium tuberculostearicum
Experimental: as §1, §2

[1] = system: Ax20, Ax30, Ax43, Ax52, Ax73; assay: Inhibition of release of 3-hydroxy-3-methyl-hexanoic acid, average over bacterial species; conditions: for inhibition at 10 ppm / inhibition at 100 ppm: average of Ax20, Ax30, Ax43, Ax52, Ax73
Experimental: as §1, with “The cells were then preincubated with the test agent for 30 min, 4 h, 8 h or 24 h.” left out
as §2

[2] = AX20, preincubation 0.5 h, 10 ppm test compound, read-out: % inhibition of the release of 3-hydroxy-3-methyl-hexanoic acid
[3] = AX20, preincubation 0.5 h, 100 ppm test compound, read-out: % inhibition of the release of 3-hydroxy-3-methyl-hexanoic acid
[4] = AX20, preincubation 4 h, 10 ppm test compound, read-out: % inhibition of the release of 3-hydroxy-3-methyl-hexanoic acid
[5] = AX20, preincubation 4 h, 100 ppm test compound, read-out: % inhibition of the release of 3-hydroxy-3-methyl-hexanoic acid
[6] = AX20, preincubation 8 h, 10 ppm test compound, read-out: % inhibition of the release of 3-hydroxy-3-methyl-hexanoic acid
[7] = AX20, preincubation 8 h, 100 ppm test compound, read-out: % inhibition of the release of 3-hydroxy-3-methyl-hexanoic acid
[8] = AX20, preincubation 24 h, 10 ppm test compound, read-out: % inhibition of the release of 3-hydroxy-3-methyl-hexanoic acid
[9] = AX20, preincubation 24 h, 100 ppm test compound, read-out: % inhibition of the release of 3-hydroxy-3-methyl-hexanoic acid
[10] = AX20, 100 ppm test compound, method of example 2, preincubation time not stated, read-out: % Inhibition of release of 3-hydroxy-3-methyl-hexanoic acid (100 ppm test compound)

With CCCCC(CC)COC(=O)N[C@@H](CCC(N)=O)C(=O)O (stereo partly drawn) [Compound II, reference compound] the inhibition at 10 ppm (Corynebacterium Ax 20; [2]) was 2.8%, the inhibition at 100 ppm (Corynebacterium Ax 20; [3]) was 33.4% and the inhibition at 500 ppm (Corynebacterium Ax 20; AX20, preincubation 0.5 h) was 76.6%. The inhibition at 1000 ppm (Corynebacterium Ax 20; AX20, preincubation 0.5 h) was 83%, the inhibition at 10 ppm (Corynebacterium Ax 20; [4]) was -4.4% and the inhibition at 100 ppm (Corynebacterium Ax 20; [5]) was -25.2%. It also gave an inhibition at 500 ppm (Corynebacterium Ax 20; AX20, preincubation 4 h) of 59.9%, an inhibition at 1000 ppm (Corynebacterium Ax 20; AX20, preincubation 4 h) of 79.5% and an inhibition at 10 ppm (Corynebacterium Ax 20; [6]) of 8.3%. The inhibition at 100 ppm (Corynebacterium Ax 20; [7]) was -9.8%, the inhibition at 500 ppm (Corynebacterium Ax 20; AX20, preincubation 8 h) was -5.6% and the inhibition at 1000 ppm (Corynebacterium Ax 20; AX20, preincubation 8 h) was 41.3%. It also gave an inhibition at 10 ppm (Corynebacterium Ax 20; [8]) of -1%, an inhibition at 100 ppm (Corynebacterium Ax 20; [9]) of -13.3% and an inhibition at 500 ppm (Corynebacterium Ax 20; AX20, preincubation 24 h) of -28.8%. The inhibition at 1000 ppm (Corynebacterium Ax 20; AX20, preincubation 24 h) was -23.1%, the “kind of inhibition (true inhibitor or alternative substrate)” value (Corynebacterium Ax 20) was “alternative substrate” and the “IC 50 (Concentration for 50% inhibition of malodour release)” value (Corynebacterium Ax 20; preincubation time 0.5 h) was 253.3 ppm. The “IC 50 (Concentration for 50% inhibition of malodour release)” value (Corynebacterium Ax 20; preincubation time 4 h) was 387.2 ppm, the “IC 50 (Concentration for 50% inhibition of malodour release)” value (Corynebacterium Ax 20; preincubation time 8 h) was greater than 1000 ppm and the “IC 50 (Concentration for 50% inhibition of malodour release)” value (Corynebacterium Ax 20; preincubation time 24 h) was >>1000 ppm.
With CCCCC(CC)CNC(=O)N[C@@H](CCC(N)=O)C(=O)O (stereo partly drawn) [Compound Ia, N2-[(2-ethylhexylamino)carbonyl]-L-glutamine] the “inhibitory activity compared to compound II” value (Corynebacterium Ax 20; 0.5 h preincubation time) was greater than 25 fold, the “inhibitory activity compared to compound II” value (Corynebacterium Ax 20; 8 h preincubation time) was greater than 100 times and the “inhibition of malodour release” value (Corynebacterium Ax 20; 10 ppm combined with Cosmocil CQ 100 ppm) was 58.8. For the same compound, the “inhibition of malodour release” value (Corynebacterium Ax 20; 10 ppm combined with Cosmocil CQ 200 ppm) was 75.6, the “inhibition of malodour release” value (Corynebacterium Ax 20; 10 ppm combined with Cosmocil CQ 500 ppm) was 85.2 and the “inhibition of malodour release” value (Corynebacterium Ax 20; 100 ppm combined with Cosmocil CQ 100 ppm) was 85.9. For the same compound, the “inhibition of malodour release” value (Corynebacterium Ax 20; 100 ppm combined with Cosmocil CQ 200 ppm) was 95.6, the inhibition at 100 ppm (Corynebacterium Ax 20; [10]) was 79.8% and the inhibition at 10 ppm (Corynebacterium Ax 20; AX20, Ax20, preincubation 0.5 h, 10 ppm, read-out: % inhibition of release of 3-hydroxy-3-methyl-hexanoic acid) was 51%. The inhibition at 100 ppm (Corynebacterium Ax 20; AX20, Ax20, preincubation 0.5 h, 100 ppm, read-out: % inhibition of release of 3-hydroxy-3-methyl-hexanoic acid) was 81%, the inhibition at 10 ppm (Corynebacterium Ax 20; AX20, Ax20, preincubation 2 h, 10 ppm, read-out: % inhibition of release of 3-hydroxy-3-methyl-hexanoic acid) was 50% and the inhibition at 100 ppm (Corynebacterium Ax 20; AX20, Ax20, preincubation 2 h, 100 ppm, read-out: % inhibition of release of 3-hydroxy-3-methyl-hexanoic acid) was 86%. For the same compound, the inhibition at 10 ppm (Corynebacterium Ax 20; AX20, Compound Ia, 10 ppm alone (Cosmocil CQ 0 ppm), read-out: inhibition of malodour release) was 61%, the inhibition at 100 ppm (Corynebacterium Ax 20; AX20, Compound Ia, 100 ppm alone (Cosmocil CQ 0 ppm), read-out: inhibition of malodour release) was 75.8% and the inhibition at 10 ppm (Corynebacterium Ax 20; [2]) was 61%. It also gave an inhibition at 100 ppm (Corynebacterium Ax 20; [3]) of 75.8%, an inhibition at 500 ppm (Corynebacterium Ax 20; AX20, preincubation 0.5 h) of 92.4% and an inhibition at 1000 ppm (Corynebacterium Ax 20; AX20, preincubation 0.5 h) of 92.5%. The inhibition at 10 ppm (Corynebacterium Ax 20; [4]) was 52.2%, the inhibition at 100 ppm (Corynebacterium Ax 20; [5]) was 81.2% and the inhibition at 500 ppm (Corynebacterium Ax 20; AX20, preincubation 4 h) was 100%. It also gave an inhibition at 1000 ppm (Corynebacterium Ax 20; AX20, preincubation 4 h) of 91.5%, an inhibition at 10 ppm (Corynebacterium Ax 20; [6]) of 65.2% and an inhibition at 100 ppm (Corynebacterium Ax 20; [7]) of 86%. The inhibition at 500 ppm (Corynebacterium Ax 20; AX20, preincubation 8 h) was 100%, the inhibition at 1000 ppm (Corynebacterium Ax 20; AX20, preincubation 8 h) was 91.8% and the inhibition at 10 ppm (Corynebacterium Ax 20; [8]) was 19.9%. For the same compound, the inhibition at 100 ppm (Corynebacterium Ax 20; [9]) was 83.2%, the inhibition at 500 ppm (Corynebacterium Ax 20; AX20, preincubation 24 h) was 100% and the inhibition at 1000 ppm (Corynebacterium Ax 20; AX20, preincubation 24 h) was 89.6%. The “kind of inhibition (true inhibitor or alternative substrate)” value (Corynebacterium Ax 20) was “true inhibitor”, the efficacy as inhibitors (Corynebacterium Ax 20) was “particularly good efficacy as inhibitors” and the “IC 50 (Concentration for 50% inhibition of malodour release)” value (Corynebacterium Ax 20; preincubation time 0.5 h) was less than 10 ppm. For the same compound, the “IC 50 (Concentration for 50% inhibition of malodour release)” value (Corynebacterium Ax 20; preincubation time 4 h) was less than 10 ppm, the “IC 50 (Concentration for 50% inhibition of malodour release)” value (Corynebacterium Ax 20; preincubation time 8 h) was less than 10 ppm and the “IC 50 (Concentration for 50% inhibition of malodour release)” value (Corynebacterium Ax 20; preincubation time 24 h) was 52.8 ppm. For the same compound, the inhibition at 10 ppm (Ax30; preincubation 0.5 h) was 95%, the inhibition at 100 ppm (Ax30; preincubation 0.5 h) was 100% and the inhibition at 10 ppm (Ax30; preincubation 2 h) was 93%. The inhibition at 100 ppm (Ax30; preincubation 2 h) was 100%, the inhibition at 10 ppm (Ax52; preincubation 0.5 h) was 77% and the inhibition at 100 ppm (Ax52; preincubation 0.5 h) was 83%. It also gave an inhibition at 10 ppm (Ax52; preincubation 2 h) of 86%, an inhibition at 100 ppm (Ax52; preincubation 2 h) of 94% and an inhibition at 10 ppm (Ax73; preincubation 0.5 h) of 107%. The inhibition at 100 ppm (Ax73; preincubation 0.5 h) was 87%, the inhibition at 10 ppm (Ax73; preincubation 2 h) was 70% and the inhibition at 100 ppm (Ax73; preincubation 2 h) was 94%. It also gave an inhibition at 10 ppm (Ax43; preincubation 0.5 h) of 93%, an inhibition at 100 ppm (Ax43; preincubation 0.5 h) of 97% and an inhibition at 10 ppm (Ax43; preincubation 2 h) of 97%. It also gave an inhibition at 100 ppm (Ax43; preincubation 2 h) of 99%, an inhibition at 10 ppm ([1]; preincubation 0.5 h) of 84.6% and an inhibition at 100 ppm ([1]; preincubation 0.5 h) of 89.6%. The inhibition at 10 ppm ([1]; preincubation 2 h) was 79.2%, the inhibition at 100 ppm ([1]; preincubation 2 h) was 94.6% and the “activity in different bacterial species” value ([1]; conclusion from Table 4) was “active in all bacterial species”.
NC(=O)CC[C@H](NC(=O)NCc1ccccc1)C(=O)O [Compound Ib, N2-[(benzylamino)carbonyl]-L-glutamine] was tested, and the inhibition at 100 ppm (Corynebacterium Ax 20; [10]) was 61% and the efficacy as inhibitors (Corynebacterium Ax 20) was “particularly good efficacy as inhibitors”.
NC(=O)CC[C@H](NC(=O)Nc1cccc(Cc2ccccc2)c1)C(=O)O [Example 1c, N2-[(3-benzylphenylamino)carbonyl]-L-glutamine] showed an inhibition at 100 ppm (Corynebacterium Ax 20; [10]) of 71%.
